Drawing on patent US5493007A, “Platelet aggregation inhibitors having high specificity for GPIIBIIIA” (Genentech, Inc., priority 1994, dated 1996), this text covers IC50 for 14 compounds.

The term IC50 denotes the concentration needed to halve the response being measured.

*1 amine or outer side, *2 acyl side, *3 side chain or, on linkers, in order; H or OH if unused. Where a SMILES comes first, the peptide text is derived from it. Bridges are numbered along the chain shown (N, C = ends). [ ]: non-standard residue; d: D form. The star is where a group is joined. Ethylenediamine = C(CN[*:2])N[*:1]; Aad = N[C@@H](CCCC(=O)O)C(=O)O; Pen = CC(C)(S)[C@H](N)C(=O)O; dOrn = NCCC[C@@H](N)C(=O)O; Orn = NCCC[C@H](N)C(=O)O; NH(CH2)5NH2 = NCCCCCN*; NH(CH2)4NH2 = NCCCCN*; Ava = NCCCCC(=O)O

The target of one experiment is GP IIb IIIa (Homo sapiens, UniProt P05106+P08514). Briefly: Fibrinogen-GP IIb IIIa Receptor ELISA Binding Assay. As to conditions: purified human platelet GP IIb IIIa, fibrinogen-coated plates; read-out: ELISA IC50 Fibrinogen GPIIb IIIa. More on the design: from tissue; host or cells: outdated human platelets. The method, then:
The method used is essentially that described in Nachman and Leung (J. Clin. Invest., 69:263-269 [1982]). The GP IIb IIIa is essentially purified as described in Fitzgerald et al., (Anal. Biochem. 151:169-177 [1985]).
Outdated human platelets are washed 3 times with 10 mM tris-HCl, 150 mM NaCl (TBS), 1 mM EDTA, pH 7.5, and centrifuged at 2000×g to pellet cells. Cells are lysed in 5 pellet volumes of TBS, 1% Triton X-100, 1 mM Ca2 Cl2, and followed by centrifugation at 30,000×g. The supernatant fraction is collected and the supernatant is loaded onto a concanavalin-A column, previously equilibrated in TBS, 1 mM Ca2 Cl2, 0.1% Triton, 0.05% NaN3 and eluted with 0.2M α-methylmannoside. Fractions are pooled and loaded onto a heparin-agarose column. The flowthrough is collected and concentration on an Amicon YM 30 filter to a volume of approximately 5-10 mi. The concentrate is then applied to an S-300 column (500 ml) and 6 ml fractions are collected. The GP IIb IlIa containing fractions are collected, pooled, and stored at -80° C.
The purification of fibrinogen is conducted essentially as described by Lipinska et al., (J. Lab. Clin. Med. 507, [1974]). Briefly, a 0.3% w/v solution of human fibrinogen (Kabi #5302) is dissolved in 150 mM NaCl. Saturated (NH4)2 SO4 is added dropwise with stirring to the fibrinogen solution to obtain about 16% saturation. The precipitate is spun down in appropriate size bottles at 2000×g. The supernatant is decanted and the precipitate resuspended in 150 mM NaCl (approximately 50% of the original volume). NH4 SO4 is again added dropwise to obtain 16% saturation. The suspension is spun down and the precipitate is resuspended in Tris-saline in a minimal volume (approximately 5% of the original volume). Any remaining insoluble material is spun down at 2000 rpm in a Sorval type centrifuge and the fibrinogen supernatant is decanted and dialyzed overnight at 4° C. against Tris-saline. Characterization of the fibrinogen is by the Bradford protein assay, SDS-PAGE, and/or Western blotting using well known standard procedures.
Briefly, 96 well plates are coated (Type Nunc 1 Maxisorp™) with 10 μg/ml purified fibrinogen (100 μl/well), and allowed to stand overnight at 4° C. The plates are washed three times with PBS Tween (0.137M NaCl, 0.003M KCl, 0.008M Na2 HPO4, 0.001M KH2 PO4, pH 7.4 at room temperature, 0.05% Tween-20) and blocked for 1 to 2 hours at room temperature with 200 μl/well TNCNT (which is 0.5% BSA, 20mM Tris, pH 7.5 at room temperature, 120 mM NaCl, 0.2% NAN3, 2mM CaCl2, 0.05% Tween 20, 0.5% BSA [Calbiochem RIA grade or better]) on a plate shaker. The plates are again washed three times with PBS/Tween and then 50 μl of sample in TNCNT is added. The mixture is incubated for 15 minutes at room temperature on a plate shaker. The stock solution of purified GP IIb IIIa receptor from human platelets, (0.4-1.0 mg/ml GP IIb IIIa in 0.1% Triton X-100, 1 mM CaCl2, 20 mM Tris, 150 mM NaCl, 0.05% NaN3 in 0.3M N-acetyl glucosamine pH 7.5, stored at -70° C.), is reconstituted to about 40 μg/ml in TNCNT. Fifty μl of this diluted GP IIb IIIa is then added to each well and incubated on a plate shaker at room temperature. After one hour, the plates are washed four times with PBS/Tween and 100 μl of a polyclonal or monoclonal antibody specific for GP IIIa such as AP3 (1 μg/ml) (See e.g. Newman et al., Blood, 65:227-232 [1985]) in ELISA buffer (PBS, 0.5% BSA, 0.05% Tween 20, 0.01% Thimerasol) is added. After a one hour incubation at room temperature on a plate shaker, the samples are washed 4 times with PBS/Tween. One hundred μl of GAM-HRP (horse radish peroxidase conjugate of goat anti-mouse IgG [Pel-Freeze Cat. 715305-1] dissolved in ELISA buffer) previously diluted to 1:10,000 is then added and the samples are incubated 1 hour at room temperature on a plate shaker. […]

The target in another experiment is Fibronectin Receptor (Homo sapiens, UniProt P05556+P08648). The experiment can be described thus: Human Fibronectin-Fibronectin Receptor ELISA Assay. The experiment is classed as binding. Also on record: octylglucoside (OG) extracted human placenta; from tissue; host or cells: human placenta. As to conditions: human placenta fibronectin receptor, fibronectin-coated plates; read-out: ELISA IC50 Fibronectin FnR. The method, then:
Fibronectin receptor is purified according to the procedures of Pytela et al., (Methods Enzymol. 144:475 […]). Briefly, fibronectin receptor is purified employing an Arg-Gly-Asp affinity chromatography from (100 mM) octylglucoside (OG) extracted human placenta. The OG extract is filtered over Sepharose 6B GRGDSPK column. The column is washed three times with three column volumes of Tris-buffered saline (TBS) TBS, 1 mM CaCl2, and 25 mM OG. The receptor is eluted with TBS, 20 mM EDTA, and 25 mM Octyl thioglucoside, and is stored in 1 mM CaCl2, 1 mM MgCl2, at -80° C.
Microtiter plates are coated with 110 μl human fibronectin (at 2 μg/ml) in TBS. Plates are washed three times with TBS containing 0.05% Tween 20. Test inhibitors are then added after washing in 10 microliter aliquots. The fibronectin receptor is added in 2-fold serial dilutions with TBS containing 20 mM octyl glucoside and 2 mM MnCl2. Plates are incubated three hours at room temperature, and washed with 200 μl TBS-Tween 20 buffer. 100 μl of affinity-purffied rabbit anti-human fibronectin receptor antibody is added to the wells and the plates are incubated two hours, washed twice with TBS-Tween and once with distilled water. Affinity-purified goat anti-rabbit IgG conjugated to horseradish peroxidase (100 μl) is added to each well followed by incubation for 60 minutes at room temperature. Plates are again washed twice with TBS-Tween and distilled water. 100 μl of substrate mixture (10 mg o-phenylenediamine in 25 ml 0.1M citrate-phosphate buffer, pH 5.0 6 μ30% H2 O2) is added to the plates and allowed to develop. The development process is stopped by adding 50 μl of 4N H2 SO4 to each well and read at […].
In general terms: ELISA stands for enzyme-linked immunosorbent assay.

Chain of Fibronectin Receptor (P08648 42-894 limits assumed): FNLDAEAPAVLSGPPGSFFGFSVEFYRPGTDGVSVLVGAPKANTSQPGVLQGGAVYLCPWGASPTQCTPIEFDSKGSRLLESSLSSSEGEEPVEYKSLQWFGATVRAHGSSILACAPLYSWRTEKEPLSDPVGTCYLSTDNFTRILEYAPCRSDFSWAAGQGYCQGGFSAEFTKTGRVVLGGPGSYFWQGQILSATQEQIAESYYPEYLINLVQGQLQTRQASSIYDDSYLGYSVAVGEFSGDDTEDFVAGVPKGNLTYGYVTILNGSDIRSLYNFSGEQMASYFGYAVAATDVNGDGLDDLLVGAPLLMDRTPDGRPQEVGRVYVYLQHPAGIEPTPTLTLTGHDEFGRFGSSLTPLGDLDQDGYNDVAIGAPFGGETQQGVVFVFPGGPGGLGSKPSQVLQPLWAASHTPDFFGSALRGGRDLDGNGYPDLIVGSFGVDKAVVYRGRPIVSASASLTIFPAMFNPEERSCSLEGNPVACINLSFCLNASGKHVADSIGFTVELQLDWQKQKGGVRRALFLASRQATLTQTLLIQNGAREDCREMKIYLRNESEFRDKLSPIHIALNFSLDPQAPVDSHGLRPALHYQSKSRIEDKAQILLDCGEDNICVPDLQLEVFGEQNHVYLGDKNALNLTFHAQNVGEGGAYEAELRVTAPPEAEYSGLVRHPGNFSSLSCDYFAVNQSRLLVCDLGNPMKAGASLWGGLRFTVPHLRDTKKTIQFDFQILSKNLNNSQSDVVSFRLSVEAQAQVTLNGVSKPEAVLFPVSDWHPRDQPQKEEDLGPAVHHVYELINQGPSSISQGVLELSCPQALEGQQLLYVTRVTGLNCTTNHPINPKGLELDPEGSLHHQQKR
Chain of Fibronectin Receptor (P08648 895-1049 partner limits assumed): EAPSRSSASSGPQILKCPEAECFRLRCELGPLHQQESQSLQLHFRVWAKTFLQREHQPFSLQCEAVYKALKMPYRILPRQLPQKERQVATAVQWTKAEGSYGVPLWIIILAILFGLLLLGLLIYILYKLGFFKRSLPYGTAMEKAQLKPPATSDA
Chain of Fibronectin Receptor (P05556 21-798): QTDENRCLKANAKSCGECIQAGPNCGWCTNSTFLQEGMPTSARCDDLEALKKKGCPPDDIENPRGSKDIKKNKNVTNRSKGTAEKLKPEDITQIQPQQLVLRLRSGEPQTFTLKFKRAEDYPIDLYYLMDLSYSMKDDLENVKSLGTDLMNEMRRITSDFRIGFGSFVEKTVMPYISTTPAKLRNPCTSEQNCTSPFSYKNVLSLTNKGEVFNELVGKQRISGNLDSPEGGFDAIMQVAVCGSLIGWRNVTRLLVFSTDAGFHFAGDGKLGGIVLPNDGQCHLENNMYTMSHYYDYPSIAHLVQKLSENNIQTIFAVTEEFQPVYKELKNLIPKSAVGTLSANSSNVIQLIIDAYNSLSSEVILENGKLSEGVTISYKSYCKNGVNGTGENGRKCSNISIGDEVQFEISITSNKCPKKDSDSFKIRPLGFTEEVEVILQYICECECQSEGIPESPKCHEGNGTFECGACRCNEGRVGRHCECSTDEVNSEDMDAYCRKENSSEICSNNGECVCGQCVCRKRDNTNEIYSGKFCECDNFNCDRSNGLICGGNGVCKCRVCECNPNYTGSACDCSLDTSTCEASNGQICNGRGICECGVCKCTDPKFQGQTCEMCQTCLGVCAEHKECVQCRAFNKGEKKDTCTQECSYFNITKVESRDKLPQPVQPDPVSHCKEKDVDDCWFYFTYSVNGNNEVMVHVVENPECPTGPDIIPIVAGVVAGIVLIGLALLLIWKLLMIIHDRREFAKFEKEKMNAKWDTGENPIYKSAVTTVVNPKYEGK
Chain of GP IIb IIIa (P08514 32-887 limits assumed): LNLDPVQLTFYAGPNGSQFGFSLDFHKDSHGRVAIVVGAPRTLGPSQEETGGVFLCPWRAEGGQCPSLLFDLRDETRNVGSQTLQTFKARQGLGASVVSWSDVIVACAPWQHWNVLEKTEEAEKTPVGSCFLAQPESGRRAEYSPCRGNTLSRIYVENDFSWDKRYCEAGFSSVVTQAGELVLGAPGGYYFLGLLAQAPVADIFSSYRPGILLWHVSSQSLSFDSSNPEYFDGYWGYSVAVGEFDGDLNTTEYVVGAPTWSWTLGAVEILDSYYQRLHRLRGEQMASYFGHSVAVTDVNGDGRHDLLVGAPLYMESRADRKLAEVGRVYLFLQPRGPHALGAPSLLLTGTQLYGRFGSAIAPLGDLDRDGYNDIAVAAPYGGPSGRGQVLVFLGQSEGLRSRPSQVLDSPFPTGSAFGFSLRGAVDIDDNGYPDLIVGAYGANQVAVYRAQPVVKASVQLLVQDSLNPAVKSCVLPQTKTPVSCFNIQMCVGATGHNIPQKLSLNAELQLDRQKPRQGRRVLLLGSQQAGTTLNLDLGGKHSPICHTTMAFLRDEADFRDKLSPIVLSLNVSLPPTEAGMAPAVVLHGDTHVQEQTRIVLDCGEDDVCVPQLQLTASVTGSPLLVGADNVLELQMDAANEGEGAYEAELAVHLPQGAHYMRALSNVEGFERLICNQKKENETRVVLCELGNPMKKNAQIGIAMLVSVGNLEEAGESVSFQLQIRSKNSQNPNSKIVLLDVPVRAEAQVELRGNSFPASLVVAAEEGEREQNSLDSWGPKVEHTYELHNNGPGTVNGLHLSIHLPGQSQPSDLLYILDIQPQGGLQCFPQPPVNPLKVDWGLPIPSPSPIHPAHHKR
Chain of GP IIb IIIa (P08514 891-1039 partner limits assumed): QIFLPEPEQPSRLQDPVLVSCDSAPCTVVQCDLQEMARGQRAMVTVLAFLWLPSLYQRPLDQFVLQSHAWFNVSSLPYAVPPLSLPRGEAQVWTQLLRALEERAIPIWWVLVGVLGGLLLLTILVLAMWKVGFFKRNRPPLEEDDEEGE
Chain of GP IIb IIIa (P05106 27-788): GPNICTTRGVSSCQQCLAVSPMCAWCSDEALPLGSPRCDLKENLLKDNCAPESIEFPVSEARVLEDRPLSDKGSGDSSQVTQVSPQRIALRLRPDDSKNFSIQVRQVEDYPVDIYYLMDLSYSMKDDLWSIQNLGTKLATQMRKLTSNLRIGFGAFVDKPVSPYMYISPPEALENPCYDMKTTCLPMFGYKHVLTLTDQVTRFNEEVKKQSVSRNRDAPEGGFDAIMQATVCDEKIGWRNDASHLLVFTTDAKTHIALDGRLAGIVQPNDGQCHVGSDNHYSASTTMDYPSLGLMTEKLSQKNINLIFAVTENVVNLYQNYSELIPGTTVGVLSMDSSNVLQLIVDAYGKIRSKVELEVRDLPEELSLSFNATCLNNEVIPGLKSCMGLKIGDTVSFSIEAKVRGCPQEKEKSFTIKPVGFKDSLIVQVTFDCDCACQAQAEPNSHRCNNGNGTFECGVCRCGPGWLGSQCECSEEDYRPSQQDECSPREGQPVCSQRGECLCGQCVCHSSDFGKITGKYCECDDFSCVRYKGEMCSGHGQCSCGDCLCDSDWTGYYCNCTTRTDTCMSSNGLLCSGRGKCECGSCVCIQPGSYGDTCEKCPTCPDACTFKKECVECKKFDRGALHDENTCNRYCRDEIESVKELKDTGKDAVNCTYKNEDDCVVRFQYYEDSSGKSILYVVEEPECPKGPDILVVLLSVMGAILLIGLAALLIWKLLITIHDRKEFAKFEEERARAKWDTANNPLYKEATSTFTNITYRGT

Regarding `N=C(N)NCCC[C@@H]1NC(=O)[C@@H](Cc2ccc(O)cc2)NC(=O)C(CCCCN)SC[C@@H](C(=O)O)NC(=O)[C@H](CC(=O)O)NC(=O)CNC1=O` (single isomer, unassigned) [9/10, cyclo-S-2-L-(6-aminocaproyl)-Lys--dTyr--Arg--Gly--Asp--Cys--OH], the IC50 at GP IIb IIIa stood at 5.3 nM; at Fibronectin Receptor, 2 nM. For the compound `N=C(N)NCCC[C@@H]1NC(=O)[C@@H](Cc2ccc(O)cc2)NC(=O)CSC[C@@H](C(=O)N[C@@H](CCCN)C(N)=O)NC(=O)[C@H](CC(=O)O)NC(=O)CNC1=O` [7/5, cyclo-S-acetyl-dTyr--Arg--Gly--Asp--Cys--Orn--NH2] ({CH2CO}-[dY]RGDC[Orn]-NH2; thioether N-5), the figures for the 50% inhibitory concentration (IC50) at GP IIb IIIa and at Fibronectin Receptor were 11 nM and 63 nM, respectively. Taken in the same sequence, the figures for `CC1(C)SCC(=O)N[C@H](Cc2ccc(O)cc2)C(=O)N[C@@H](CCCCN)C(=O)NCC(=O)N[C@@H](CC(=O)O)C(=O)N[C@@H]1C(=O)N[C@@H](CCCCN)C(N)=O` [7/17, cyclo-S-acetyl-dTyr--Lys--Gly--Asp--Pen--Lys--NH2] ({CH2CO}-[dY]KGD[Pen]K-NH2; thioether N-5) were 238 nM and > 10000 nM. Take `CC1(C)SCC(=O)N[C@H](Cc2ccc(O)cc2)C(=O)N[C@@H](CCCCN)C(=O)NCC(=O)N[C@@H](CC(=O)O)C(=O)N[C@@H]1C(=O)N[C@@H](CCCNC(=N)N)C(N)=O` [7/16, cyclo-S-acetyl-dTyr--Lys--Gly--Asp--Pen--Arg--NH2] ({CH2CO}-[dY]KGD[Pen]R-NH2; thioether N-5): the concentration for half-maximal inhibition (IC50) on GP IIb IIIa was 150 nM; at Fibronectin Receptor it was > 10000 nM. With `N=C(N)NCCC[C@@H]1NC(=O)[C@@H](Cc2ccc(O)cc2)NC(=O)CSC[C@@H](C(=O)O)NC(=O)[C@H](CC(=O)O)NC(=O)CNC1=O` [7/46, cyclo-S-acetyl-dTyr--Arg--Gly--Asp--Cys--OH] ({CH2CO}-[dY]RGDC-OH; thioether N-5), the IC50 at GP IIb IIIa stood at 3.2 nM; at Fibronectin Receptor it was 3390 nM. Taken in the same sequence, the figures for `N=C(N)NCCC[C@@H]1NC(=O)[C@@H](Cc2ccc(O)cc2)NC(=O)CSC[C@@H](C(=O)N[C@H](CCCN)C(N)=O)NC(=O)[C@H](CC(=O)O)NC(=O)CNC1=O` [7/6, cyclo-S-acetyl-dTyr--Arg--Gly--Asp--Cys--dOrn--NH2] ({CH2CO}-[dY]RGDC[dOrn]-NH2; thioether N-5) were 10.5 nM and 161 nM. Consider `N=C(N)NCCC[C@@H]1NC(=O)[C@@H](Cc2ccc(O)cc2)NC(=O)CSC[C@@H](C(=O)NCCN)NC(=O)[C@H](CC(=O)O)NC(=O)CNC1=O` [8/23, cyclo-S-acetyl-dTyr--Arg--Gly--Asp--Cys--NH--X (X = ethyl amine)] ({CH2CO}-[dY]RGDC-Ethylenediamine; thioether N-5), for which the IC50 at GP IIb IIIa came out at 14 nM; on Fibronectin Receptor it was 61 nM. As to `N=C(N)NCCC[C@@H]1NC(=O)[C@@H](Cc2ccc(O)cc2)NC(=O)CSC[C@@H](C(=O)N[C@@H](CCC(N)=O)C(N)=O)NC(=O)[C@H](CC(=O)O)NC(=O)CNC1=O` [7/27, cyclo-S-acetyl-dTyr--Arg--Gly--Asp--Cys--Gln--NH2] ({CH2CO}-[dY]RGDCQ-NH2; thioether N-5), the IC50 at GP IIb IIIa was found to be 3.1 nM. In the case of `N=C(N)NCCC[C@@H]1NC(=O)[C@@H](Cc2ccc(O)cc2)NC(=O)CCC[C@@H](C(=O)N[C@@H](CCCCN)C(N)=O)NC(=O)[C@H](CC(=O)O)NC(=O)CNC1=O` [10/20, cyclo(1-5)dTyr--Arg--Gly--Asp--L-α-aminoadipic acid-Lys--NH2] ([dY]RGD[Aad]K-NH2; lactam N-5), the 50% inhibitory concentration (IC50) on GP IIb IIIa was 12.4 nM; at Fibronectin Receptor, 2310 nM. As for `N=C(N)NCCC[C@@H]1NC(=O)[C@@H](Cc2ccc(O)cc2)NC(=O)CSC[C@@H](C(=O)N[C@H](CCCNC(=N)N)C(N)=O)NC(=O)[C@H](CC(=O)O)NC(=O)CNC1=O` [7/2, cyclo-S-acetyl-dTyr--Arg--Gly--Asp--Cys--dArg--NH2] ({CH2CO}-[dY]RGDC[dR]-NH2; thioether N-5), the results for the IC50 at GP IIb IIIa and on Fibronectin Receptor were 13.5 nM and 42 nM, respectively. Taken in the same sequence, the figures for `N=C(N)NCCC[C@H](NC(=O)[C@@H]1CCCC(=O)N[C@H](Cc2ccc(O)cc2)C(=O)N[C@@H](CCCNC(=N)N)C(=O)NCC(=O)N[C@@H](CC(=O)O)C(=O)N1)C(N)=O` [10/19, cyclo(1-5)dTyr--Arg--Gly--Asp--L-α-aminoadipic acid-Arg--NH2] ([dY]RGD[Aad]R-NH2; lactam N-5) were 8.9 nM and 745 nM. For `N=C(N)NCCC[C@@H]1NC(=O)[C@@H](Cc2ccc(O)cc2)NC(=O)CSC[C@@H](C(=O)NCCCCCN)NC(=O)[C@H](CC(=O)O)NC(=O)CNC1=O` [8/13, cyclo-S-acetyl-dTyr--Arg--Gly--Asp--Cys--NH--X (X = pentylamine)] ({CH2CO}-[dY]RGDC-{NH(CH2)5NH2}; thioether N-5), in that order: 9 nM and 473 nM. `N=C(N)NCCC[C@@H]1NC(=O)[C@@H](Cc2ccc(O)cc2)NC(=O)CSC[C@@H](C(=O)NCCCCC(=O)O)NC(=O)[C@H](CC(=O)O)NC(=O)CNC1=O` [7/28, cyclo-S-(1-5)-dTyr--Arg--Gly--Asp--Cys--X (X = aminovaleric acid)] ({CH2CO}-[dY]RGDC[Ava]-OH; thioether N-5): on GP IIb IIIa, the IC50 was 70 nM. Turning to `N=C(N)NCCC[C@@H]1NC(=O)[C@@H](Cc2ccc(O)cc2)NC(=O)CSC[C@@H](C(=O)NCCCCN)NC(=O)[C@H](CC(=O)O)NC(=O)CNC1=O` [8/12, cyclo-S-acetyl-dTyr--Arg--Gly--Asp--Cys--NH--X (X = butylamine)] ({CH2CO}-[dY]RGDC-{NH(CH2)4NH2}; thioether N-5), the IC50 on GP IIb IIIa was determined as 10 nM.
